Experimental data taken from ChEMBL document CHEMBL1153665, “Development of L-689,065 - the prototype of a new class of potent 5-lipoxygenase inhibitors” (Bioorg Med Chem Lett, 1992).

How the values were obtained:
[1] = biological target: T1, Arachidonate 5-lipoxygenase-activating protein (Homo sapiens, UniProt P20292); test: Compound was tested for its binding activity towards 5-lipoxygenase activating protein (FLAP)
T1 sequence (P20292 whole entry): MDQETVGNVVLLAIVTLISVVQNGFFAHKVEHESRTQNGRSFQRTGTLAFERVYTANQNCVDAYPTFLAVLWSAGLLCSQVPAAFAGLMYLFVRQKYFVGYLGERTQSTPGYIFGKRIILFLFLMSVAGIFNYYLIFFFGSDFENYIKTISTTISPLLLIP

[2] = biological target: T2, Polyunsaturated fatty acid 5-lipoxygenase (Rattus norvegicus, UniProt P12527); test: Compound was tested for its inhibitory activity against 5-lipoxygenase in rat.
T2 sequence (P12527 whole entry): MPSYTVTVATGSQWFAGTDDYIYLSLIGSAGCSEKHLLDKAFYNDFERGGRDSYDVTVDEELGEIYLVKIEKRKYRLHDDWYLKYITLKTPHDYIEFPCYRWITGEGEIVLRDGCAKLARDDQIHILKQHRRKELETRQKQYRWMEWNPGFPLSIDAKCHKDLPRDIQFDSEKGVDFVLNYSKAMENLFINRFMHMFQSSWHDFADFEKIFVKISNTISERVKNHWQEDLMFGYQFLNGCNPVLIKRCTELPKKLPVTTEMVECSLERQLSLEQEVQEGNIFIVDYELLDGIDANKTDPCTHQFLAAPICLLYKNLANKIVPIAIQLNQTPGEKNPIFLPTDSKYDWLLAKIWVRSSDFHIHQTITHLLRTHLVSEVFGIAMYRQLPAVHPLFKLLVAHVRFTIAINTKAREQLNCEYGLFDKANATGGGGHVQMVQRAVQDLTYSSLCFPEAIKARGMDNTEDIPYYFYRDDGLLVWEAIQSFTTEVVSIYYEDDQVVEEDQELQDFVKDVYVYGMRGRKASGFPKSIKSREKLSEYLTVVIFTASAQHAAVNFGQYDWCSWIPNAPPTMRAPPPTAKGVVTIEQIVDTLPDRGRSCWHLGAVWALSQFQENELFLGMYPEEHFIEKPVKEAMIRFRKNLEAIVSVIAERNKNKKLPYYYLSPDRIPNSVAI

[3] = Maximum plasma concentration in rats when a oral dose of 200 mg/kg was given; type: ADME, organism-based; parameters: dose 200 mg/kg, route oral; conditions: rat
Rattus norvegicus [4] = test: Time to reach maximum concentration following oral administration of 200 mg/kg in rat; value ranges from 2-4; type: ADME, organism-based; parameters: dose 200 mg/kg, route oral; conditions: in vivo
Rattus norvegicus [5] = test: Compound was tested for inhibition of dyspnea at 0.5 mg/kg when administered perorally in rats; type: functional; conditions: route oral

CC1Cc2c(OCc3ccc(-c4ccccc4)cn3)ccc3c2c(c(CC(C)(C)C(=O)O)n3Cc2ccc(Cl)cc2)S1 (racemic)
IC50 [1]: 22000 nM
IC50 [2]: 60 nM
Cmax [3]: 5 µM
T max (Rattus norvegicus [4]): 2 h
inhibition in vivo at 0.5 mg/kg (Rattus norvegicus [5]): 55%

CC1Cc2c(OCc3ccc4ccccc4n3)ccc3c2c(c(CC(C)(C)C(=O)O)n3Cc2ccc(Cl)cc2)S1 (centres undefined)
IC50 [1]: 19 nM
IC50 [2]: 300 nM

CC(C)(C)Sc1c(CC(C)(C)C(=O)O)n(Cc2ccc(Cl)cc2)c2ccc(OCc3ccc4ccccc4n3)cc12 [QUIFLAPON]
IC50 [1]: 2.3 nM
IC50 [2]: > 2000 nM

Cc1c(CC(C)(C)C(=O)O)n(Cc2ccc(Cl)cc2)c2ccc(OCc3ccc4ccccc4n3)cc12
IC50 [1]: 2.8 nM
IC50 [2]: > 5000 nM

Cc1c(CC(C)(C)C(=O)O)n(Cc2ccc(Cl)cc2)c2ccc(OCc3ccc(-c4ccccc4)cn3)cc12
IC50 [1]: 9.3 nM
IC50 [2]: 700 nM

CC1Cc2c(OCc3ccc(-c4ccccc4)cn3)ccc3c2c(c(CC(C)(C)C(=O)O)n3Cc2ccc(Cl)cc2)S1 (single isomer, unassigned; (-))
IC50 [1]: > 10000 nM
IC50 [2]: 40 nM

CC1Cc2c(OCc3ccc(-c4ccccc4)cn3)ccc3c2c(c(CC(C)(C)C(=O)O)n3Cc2ccc(Cl)cc2)S1 (single isomer, unassigned; (+))
IC50 [1]: > 10000 nM
IC50 [2]: 150 nM

C=CCc1c(OCc2ccc3ccccc3n2)ccc2c1c(SC(C)(C)C)c(CC(C)(C)C(=O)O)n2Cc1ccc(Cl)cc1
IC50 [1]: 27 nM
IC50 [2]: > 8000 nM
